According to patent publication US20140128352A1, “COMPOUNDS AND METHODS FOR MODULATING MITOCHONDRIAL METABOLISM AND REACTIVE OXYGEN SPECIES PRODUCTION” (Buck Institute for Research on Aging, priority 2012, published 2014):
Entries after “also recorded” stand apart in the source; their conditions may differ. Where two headings read alike, the source gives them in different places.

How the values were obtained:
[1] = test system: ubiquinone binding site of complex I (IQ); experiment: High-throughput screen: ROS production from ubiquinone binding site of complex I (IQ), isolated skeletal muscle mitochondria; assay type: biochemical, rat; conditions: percent change in ROS from DMSO controls
[2] = biological target: T1, flavin binding site of complex I (IF) (Rattus norvegicus, UniProt Q5XIH3); experiment: High-throughput screen: ROS production from flavin binding site of complex I (IF); assay type: biochemical
T1 construct: freshly isolated muscle mitochondria were assayed; from tissue; host or cells: rat skeletal muscle mitochondria (Wistar, Harlan Laboratories)
T1 sequence (Q5XIH3 21-464 limits assumed, one chain of several): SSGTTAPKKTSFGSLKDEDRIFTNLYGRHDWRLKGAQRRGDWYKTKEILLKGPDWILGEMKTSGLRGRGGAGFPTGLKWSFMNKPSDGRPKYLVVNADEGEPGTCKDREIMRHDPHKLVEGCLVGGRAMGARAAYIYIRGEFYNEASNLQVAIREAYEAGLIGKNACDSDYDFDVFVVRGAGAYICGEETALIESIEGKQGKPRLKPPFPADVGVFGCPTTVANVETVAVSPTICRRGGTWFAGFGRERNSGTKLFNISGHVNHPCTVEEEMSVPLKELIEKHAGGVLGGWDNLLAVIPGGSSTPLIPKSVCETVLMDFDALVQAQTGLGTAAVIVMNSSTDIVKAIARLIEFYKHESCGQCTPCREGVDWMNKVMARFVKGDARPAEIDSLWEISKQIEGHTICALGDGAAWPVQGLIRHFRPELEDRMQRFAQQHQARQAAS
Experimental: Skeletal muscle mitochondria were isolated from 5-8 week old female Wistar rats (Harlan Laboratories). Minced muscle was homogenized in buffer containing bacterial protease Type VIII prior to differential centrifugation to separate mitochondria from other tissue components. Unless otherwise stated, freshly isolated muscle mitochondria were assayed in buffer containing 120 mM KCl, 5 mM HEPES, 1 mM EGTA, 0.3% (w/v) bovine serum albumin. Where indicated, CaCl2 was added to yield a final free concentration of 250 nM calcium at pH 7.0 at 37° C.
Master screening plates were prepared using a Biomek FX liquid handling workstation (Beckman) to transfer 1 μL of each compound into individual wells on 96-well storage plates (80 compounds per plate). […] Just prior to use, plates were brought to room temperature and diluted 300-fold with standard buffer (13.3X=33.3 μM). To monitor the performance of each assay throughout screening and to provide intra-plate normalization reference points, DMSO negative controls and known mitochondrial inhibitor positive controls were included on each Master compound plate.
Total amounts of superoxide and H2O2 production were determined fluorometrically as H2O2, without distinguishing between them, in the presence of exogenous superoxide dismutase (25 units/mL final), horseradish peroxidase (1 unit/mL final), and Amplex UltraRed (25 μM final) as described (Affourtit, C. et al. (2012) Measurement of proton leak and electron leak in isolated mitochondria. Methods Mol. Biol. 810: 165-82). Just prior to use, a bulk 3.3X solution was made in standard buffer and distributed into a 2 mL deep well 96-well transfer plate.
To assess the effects of a compound on ROS production from the flavin binding site of complex I (IF), Start Solution containing 5 mM glutamate, 5 mM malate and 4 μM rotenone was distributed into standard 96-well transfer plates. A Biomek FX workstation was programmed to dispense solutions into black 96-well assay plates. Solutions were dispensed to all assay plates in the following order: ROS Detection solution described in Example 3, Mitochondria solution described in Example 1 to a final concentration of 0.3 mg/ml, and Compound dilutions described in Example 2. Duplicate assay plates were made and each was initiated by the addition of 3.3X Start solution containing 5 mM glutamate, 5 mM malate and 4 μM rotenone. Plates were incubated in the dark at room temperature for 30-40 minutes before acquiring endpoint fluorescence using a Victor 3V plate reader (Perkin Elmer) equipped with 550/590 nm excitation/emission filters.
The fluorescence values in each well were scaled as the percent change from the intra-plate DMSO controls with the appropriate inhibitor positive controls defined as −100%. Following initial scaling, intra-plate normalized values were subjected to Tukey's two-way median polish to remove row and column dependent positional effects (Malo, N. et al. (2006) Statistical practice in high-throughput screening data analysis. Nat. Biotechnol. 24(2): 167-75).

[3] = biological target: T2, outer ubiquinone binding site of complex III (IIIQO) (Rattus norvegicus, UniProt P00159+P20788); experiment: High-throughput screen: ROS production from outer ubiquinone binding site of complex III (IIIQO); assay type: biochemical; conditions: for IIIQO: Table 8
T2 construct: freshly isolated muscle mitochondria were assayed; from tissue; host or cells: rat skeletal muscle mitochondria (Wistar, Harlan Laboratories)

[4] = biological target: T3, succinate dehydrogenase/complex II (SDH) (Rattus norvegicus, UniProt P21913+Q641Z9+Q6PCT8+Q920L2); experiment: High-throughput screen: ROS production from succinate dehydrogenase/complex II (SDH); assay type: biochemical; conditions: percent change in ROS from DMSO controls; for inhibition at 2.5 µM: Table 7
T3 construct: freshly isolated muscle mitochondria were assayed; from tissue; host or cells: rat skeletal muscle mitochondria (Wistar, Harlan Laboratories)
T3 sequence (Q920L2 35-656): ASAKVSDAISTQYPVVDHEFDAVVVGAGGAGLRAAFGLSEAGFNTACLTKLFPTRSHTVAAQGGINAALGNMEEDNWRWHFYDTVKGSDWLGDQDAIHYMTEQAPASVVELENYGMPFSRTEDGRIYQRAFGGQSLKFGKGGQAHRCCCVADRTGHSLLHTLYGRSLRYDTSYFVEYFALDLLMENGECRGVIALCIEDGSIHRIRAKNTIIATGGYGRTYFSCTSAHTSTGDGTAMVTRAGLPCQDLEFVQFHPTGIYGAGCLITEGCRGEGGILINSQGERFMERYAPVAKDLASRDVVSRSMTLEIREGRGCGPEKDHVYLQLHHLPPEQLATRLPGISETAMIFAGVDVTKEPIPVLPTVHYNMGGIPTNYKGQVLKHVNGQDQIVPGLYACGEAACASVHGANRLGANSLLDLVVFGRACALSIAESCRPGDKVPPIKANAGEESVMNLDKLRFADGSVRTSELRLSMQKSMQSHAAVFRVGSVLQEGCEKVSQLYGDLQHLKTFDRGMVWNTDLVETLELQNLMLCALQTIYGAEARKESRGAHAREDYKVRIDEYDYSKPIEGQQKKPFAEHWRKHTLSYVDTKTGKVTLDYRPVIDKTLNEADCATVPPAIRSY
T3 sequence (P21913 31-282): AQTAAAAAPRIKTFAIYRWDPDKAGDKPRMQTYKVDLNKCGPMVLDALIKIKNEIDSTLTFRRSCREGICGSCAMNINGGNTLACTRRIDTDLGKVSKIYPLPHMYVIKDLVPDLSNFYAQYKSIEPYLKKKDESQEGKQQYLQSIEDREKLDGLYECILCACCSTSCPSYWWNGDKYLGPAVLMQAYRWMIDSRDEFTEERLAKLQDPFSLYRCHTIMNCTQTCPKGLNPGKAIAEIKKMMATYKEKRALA
T3 sequence (Q641Z9 30-169 limits assumed): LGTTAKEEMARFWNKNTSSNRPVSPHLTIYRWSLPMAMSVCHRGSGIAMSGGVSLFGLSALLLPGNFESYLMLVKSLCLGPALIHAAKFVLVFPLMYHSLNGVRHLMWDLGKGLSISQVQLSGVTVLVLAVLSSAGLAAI
T3 sequence (Q6PCT8 57-159): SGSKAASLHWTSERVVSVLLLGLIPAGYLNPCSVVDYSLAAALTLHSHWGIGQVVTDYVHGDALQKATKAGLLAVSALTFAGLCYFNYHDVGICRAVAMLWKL

[5] = biological target: T4, glycerol-3-phosphate dehydrogenase (GPDH) (Rattus norvegicus, UniProt P35571); experiment: High-throughput screen: ROS production from glycerol-3-phosphate dehydrogenase (GPDH); assay type: biochemical; design: inhibition: dose or concentration left out as unconfirmed
T4 construct: The activity of GPDH in intact mitochondria (0.3 mg/mL) was measured; from tissue; host or cells: rat skeletal muscle mitochondria (Wistar, Harlan Laboratories)
T4 sequence (P35571 43-727): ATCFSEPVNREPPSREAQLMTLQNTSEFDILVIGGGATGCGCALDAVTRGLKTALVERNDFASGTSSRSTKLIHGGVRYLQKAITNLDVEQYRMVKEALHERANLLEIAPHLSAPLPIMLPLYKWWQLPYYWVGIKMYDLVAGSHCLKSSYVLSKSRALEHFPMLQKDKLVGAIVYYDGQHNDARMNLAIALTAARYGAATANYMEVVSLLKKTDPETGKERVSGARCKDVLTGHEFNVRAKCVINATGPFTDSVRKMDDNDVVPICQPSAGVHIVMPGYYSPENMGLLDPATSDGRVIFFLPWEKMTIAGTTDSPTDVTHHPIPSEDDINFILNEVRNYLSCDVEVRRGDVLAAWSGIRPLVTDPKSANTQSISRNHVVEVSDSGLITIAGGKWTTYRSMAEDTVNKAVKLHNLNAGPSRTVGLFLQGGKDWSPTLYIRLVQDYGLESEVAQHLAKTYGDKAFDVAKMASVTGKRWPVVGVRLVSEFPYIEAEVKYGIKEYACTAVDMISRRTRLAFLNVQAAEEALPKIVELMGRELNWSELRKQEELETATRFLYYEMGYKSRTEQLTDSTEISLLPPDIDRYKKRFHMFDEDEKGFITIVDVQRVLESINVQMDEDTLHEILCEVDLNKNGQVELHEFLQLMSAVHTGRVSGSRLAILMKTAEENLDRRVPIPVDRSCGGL

[6] = biological target: T5, GPDH (Rattus norvegicus, UniProt P35571); experiment: Retest of GPDH ROS production (expanded microplate panel / cuvette); assay type: biochemical; conditions: microplate or cuvette
T5 construct: from tissue; host or cells: rat skeletal muscle mitochondria (Wistar, Harlan Laboratories)
T5 sequence (P35571 43-727): T4 sequence (P35571 43-727)
Experimental: Compounds identified as site-selective hits as well as structural analogs were re-sourced from ChemBridge and dissolved in DMSO as 80 mM stocks. Master Titration Plates were prepared manually by serially diluting 80 mM compound stocks between 0.08 and 80 mM on 96-well microplates. Four compounds were titrated in duplicate on each plate. Additional DMSO controls were interspersed across these plates to serve as local normalization controls during analysis since two-way median polishing was not appropriate. Just prior to use, compounds were diluted 100-fold with standard buffer (10X). The same known inhibitor positive controls were included on each plate as during high-throughput screening.
The five core ROS assays and single ΔΨm assay were carried out as in the initial high-throughput screen. In addition, several assays were included to help validate the specificity of the compounds for a given site of production. All compounds were titrated against separate assays targeting IQ ROS and IIIQo ROS using subsaturating (0.5 mM final) succinate. […] Specifically, ΔΨm was monitored separately with 5 mM succinate (in the presence of 4 μM rotenone) in addition to glutamate and malate as before. The use of different substrates was designed to reveal compounds that disrupt mitochondrial function in a substrate specific manner.
Most frequently, these changes involved the use of different substrates to supply electrons from an alternative entry point in the chain. If a site of ROS production is being targeted selectively by a compound, then in many cases the supply of electrons should not influence the effectiveness of this compound at suppressing ROS production. […]
The fluorescence values in each well were scaled in relation to the intra-plate DMSO and known inhibitor controls as in the high-throughput screen except that median values for local interspersed DMSO wells (3-6 wells) were used rather than just the 8 DMSO wells in columns 1 and 12. […]

[7] = biological target: T6, site IF (Rattus norvegicus, UniProt Q5XIH3); experiment: Retest of IF ROS production (expanded microplate panel); assay type: biochemical
T6 construct: freshly isolated muscle mitochondria were assayed; from tissue; host or cells: rat skeletal muscle mitochondria (Wistar, Harlan Laboratories)
T6 sequence (Q5XIH3 21-464 limits assumed): as the sequence (Q5XIH3 21-464 limits assumed, one chain of several) above
Experimental: Compounds identified as site-selective hits as well as structural analogs were re-sourced from ChemBridge and dissolved in DMSO as 80 mM stocks. Master Titration Plates were prepared manually by serially diluting 80 mM compound stocks between 0.08 and 80 mM on 96-well microplates. Four compounds were titrated in duplicate on each plate. Additional DMSO controls were interspersed across these plates to serve as local normalization controls during analysis since two-way median polishing was not appropriate. Just prior to use, compounds were diluted 100-fold with standard buffer (10X). The same known inhibitor positive controls were included on each plate as during high-throughput screening. The five core ROS assays and single ΔΨm assay were carried out as in the initial high-throughput screen. In addition, several assays were included to help validate the specificity of the compounds for a given site of production. […] The use of different substrates was designed to reveal compounds that disrupt mitochondrial function in a substrate specific manner. […] Most frequently, these changes involved the use of different substrates to supply electrons from an alternative entry point in the chain. If a site of ROS production is being targeted selectively by a compound, then in many cases the supply of electrons should not influence the effectiveness of this compound at suppressing ROS production. […] The fluorescence values in each well were scaled in relation to the intra-plate DMSO and known inhibitor controls as in the high-throughput screen except that median values for local interspersed DMSO wells (3-6 wells) were used rather than just the 8 DMSO wells in columns 1 and 12. This normalization was applied in place of the two-way median polish used during high-throughput screening to minimize row and column effects. […] At this stage, strong candidates were not necessarily excluded from further testing if subtle off-target effects were observed (e.g. loss of specificity or signs of general inhibition at the highest concentrations). Rather, these candidates were often pursued for more detailed mechanistic studies with the expectation that subsequent structure activity analysis would provide insight into which structurally related compounds would provide the optimal specificity for a given site of production.

[8] = test system: mitochondrial membrane potential (ΔΨm); experiment: Membrane potential (ΔΨm) counterscreen with TMRM; conditions: malate, nigericin
Experimental: Skeletal muscle mitochondria were isolated from 5-8 week old female Wistar rats (Harlan Laboratories). Minced muscle was homogenized in buffer containing bacterial protease Type VIII prior to differential centrifugation to separate mitochondria from other tissue components. Unless otherwise stated, freshly isolated muscle mitochondria were assayed in buffer containing 120 mM KCl, 5 mM HEPES, 1 mM EGTA, 0.3% (w/v) bovine serum albumin. Where indicated, CaCl2 was added to yield a final free concentration of 250 nM calcium at pH 7.0 at 37° C. Total and free calcium concentrations were calculated using the Extended MaxChelator program at http://maxchelator.stanford.edu.
Compounds were manually transferred from the Master Compound Plate to two black 96-well assay plates. A bulk solution was prepared containing the following components (final concentrations) and manually dispensed into the two ΔΨm assay plates: the potentiometric dye TMRM (5 μM), mitochondria (0.2 mg/mL), glutamate (5 mM), malate (5 mM), and nigericin (80 ng/mL).

[9] = test system: complex I; experiment: Rate of NAD(P)H reduction via complex I versus observed ROS production; assay type: biochemical, rat
Experimental: To compare candidate IQ ROS inhibitors with mitochondrial inhibitors known to disrupt complex I activity (e.g. rotenone) or oxidize the electron transport chain (e.g. the uncoupler FCCP), the rate of NAD(P)H reduction via complex I was measured when isolated mitochondria were provided with saturating concentrations of the complex II substrate succinate (5 mM) and subsaturating levels of glutamate (1 mM) to facilitate full activation of complex II by oxaloacetate removal. […] These conditions allow electron and proton fluxes through complex Ito reverse and be directed predominantly toward the matrix. Addition of succinate causes a rapid increase in the reduction state of the matrix NAD(P)H pool that can be monitored as described above. The rate of NAD(P)H reduction is therefore a measure of electron flux through complex I for which direct comparisons can be made under identical conditions to effects on rates of ROS production.

[10] = Table 7, percent change in ROS from DMSO controls, read-out: IF
[11] = Table 3, 5 mM glutamate, 5 mM malate, 4 μM rotenone, compounds 2.5 μM, percent change from DMSO, positive control −100%, read-out: % Reduction in ROS production (IF)
[12] = Table 8, percent change in ROS from DMSO controls
[13] = Table 9, percent change in ROS from DMSO controls
[14] = Table 7, percent change in ROS from DMSO controls, read-out: IIIQO
[15] = percent change in ROS from DMSO controls
[16] = Table 9, percent change in ROS from DMSO controls, read-out: IIIQo
[17] = Table 7, percent change in ROS from DMSO controls

Row | Compound | IQ ([1]; Table 7) | inhibition at 2.5 µM [2, 10] [%] | inhibition at 2.5 µM [4] [%] | effect on GPDH ROS on retesting [6] | IQ ([1]; Table 8) | IQ ([1]; Table 9) | inhibition at 2.5 µM [2, 11] [%] | IF [2, 12] | IF [2, 13] | inhibition at 2.5 µM [3, 14] [%] | IIIQO [3, 15] | inhibition at 2.5 µM [3, 16] [%] | SDH ([4]; Table 8) | SDH ([4]; Table 9) | inhibition [5, 17] [%] | GPDH [5, 12] | GPDH [5, 13] | ΔΨm ([8]; Table 8, glutamate) | ΔΨm ([8]; Table 9, glutamate) | further results
1 | COc1ccc(/C=C2\C(=O)NC(=S)N(c3ccccc3)C2=O)cc1Br [Compound 52] | −0.2 | 2.2 | -4.6 | did not show any effect on GPDH when retested | – | – | – | – | – | – | – | – | – | – | – | – | – | – | – | inhibition at 2.5 µM ([3]; read-out: IIIQO): 0.4%; inhibition at 2.5 µM ([5]; Table 7, percent change in ROS from DMSO controls, read-out: GPDH): 0%; inhibition at 2.5 µM ([5]; read-out: % Reduction in ROS Production (GPDH)): 14.6%
2 | O=C(O)C1CCCCC1C(=O)NC1CCCCCCC1 (stereo not shown) [Compound 30] | −0.7 | 36.9 | -3.3 | – | −0.7 | −0.7 | 36.9 | −36.9 | −36.9 | -0.1 | 0.1 | -0.1 | 3.3 | 3.3 | -0.7 | 0.7 | 0.7 | −1.0 | −1.0 | inhibition at 2.5 µM ([7]; 2.5 μM): 37%
3 | N#CC(C#N)=NNc1ccc(OC(F)(F)F)cc1 [FCCP] | – | – | – | – | – | – | – | – | – | – | – | – | – | – | – | – | – | – | – | effect on rates of NADH reduction and ROS production [9]: progressively inhibited both activities; also recorded: suppresses observed ROS to near zero
4 | CN(C)CCCN(CCCN(C)C)Cc1cccnc1 [Compound 33] | −0.5 | 3 | – | – | −0.5 | −0.5 | 3 | −3.0 | −3.0 | -6.1 | 6.1 | -6.1 | – | – | 12.7 | −12.7 | −12.7 | 0.4 | 0.4 | effect on IF ROS and selectivity for site IF [7]: further improved selectivity for IF without compromising ΔΨm
5 | C=C(C)[C@H]1Cc2c(ccc3c2O[C@@H]2COc4cc(OC)c(OC)cc4[C@@H]2C3=O)O1 [rotenone] | – | – | – | – | – | – | – | – | – | – | – | – | – | – | – | – | – | – | – | effect on rates of NADH reduction and ROS production ([9]; succinate with low glutamate, range of concentrations): progressively inhibited both activities; effect on rates of NADH reduction and ROS production ([9]; succinate with low glutamate, range of concentrations, listed as Rotenone): eliminates all IQ ROS production but not that from underlying IF and IIIQo
6 | O=C(O)CCC(=O)Nc1ccc(-c2nc3ccccc3o2)cc1 [Compound 50] | 0.8 | 2.6 | -2.1 | retested well as selective inhibitors of GPDH ROS | 0.8 | 0.8 | – | −2.6 | −2.6 | -2.5 | 2.5 | -2.5 | 2.1 | 2.1 | 12.2 | −12.2 | −12.2 | 0.8 | 0.8 | inhibition at 2.5 µM ([5]; Table 6, 25 mM glycerol phosphate, rotenone, antimycin A, malonate, myxothiazol, compounds 2.5 μM, scaled to IQ positive controls, read-out: % Reduction in ROS Production (GPDH)): 12.2%
